Patent US6251943A, “Method of treating or preventing septic shock by administering a MEK inhibitor” (Warner-Lambert Company, priority 1999, dated 2001)

What was measured:
MEK = MEK (Homo sapiens, UniProt Q02750); test: In vitro MEK inhibition (cascade assay for inhibitors of the MAP kinase pathway / in vitro MEK assay); type: biochemical
Protocol: Incorporation of ^32 P into myelin basic protein (MBP) was assayed in the presence of a glutathione S-transferase fusion protein containing p44MAP kinase (GST-MAPK) and a glutathione S-transferase fusion protein containing p45MEK (GST-MEK). The assay solution contained 20 mM HEPES, pH 7.4, 10 MM MgCl2, 1 mM MnCl2, 1 mM EGTA, 50 μM [γ-^32 P]ATP, 10 μg GST-MEK, 0.5 μg GST-MAPK and 40 μg MBP in a final volume of 100 μL. […] Compounds were assessed at 10 μM for ability to inhibit incorporation of ^32 P.
To ascertain whether compounds were inhibiting GST-MEK or GST MAPK, two additional protocols were employed. In the first protocol, compounds were added to tubes containing GST-MEK, followed by addition of GST-MAPK, MBP and [γ-^32 P]ATP. In the second protocol, compounds were added to tubes containing both GST-MEK and GST-MAPK, followed by MBP and [γ-^32 P]ATP.
For evaluation of direct MEK activity, 10 μg GST-MEK1 was incubated with 5 μg of a glutathione S-transferase fusion protein containing p44MAP kinase with a lysine to alanine mutation at position 71 (GST-MAPK-KA). This mutation eliminates kinase activity of MAPK, so only kinase activity attributed to the added MEK remains. Incubations were 15 minutes at 30° C in a final volume of 50 μL containing 50 mM Tris (pH 7.5), […], […], and 10 μM [γ-^32 P]ATP. The reaction was stopped by addition of Laenunli SDS sample buffer and phosphorylated GST-MAPK-KA was resolved by electrophoresis on a 10% polyacrylamide gel. Radioactivity incorporated into GST-MAPK-KA was determined by autoradiography, and subsequently by excision of the bands followed by scintillation counting. […] When these sites are phosphorylated, MEK activity is increased. Phosphorylation of these sites can be mimicked by mutation of the serine residues to glutamate. For this assay, 5 μg GST-MEK-2E was incubated with 5 μg GST-MAPK-KA for 15 minutes at 30° C. in the same reaction buffer as described above. Reactions were terminated and analyzed as above.

MAP kinase = test: "In Vivo" activity (whole cell MAP kinase assay); type: cell-based; details: Table 2
Protocol: To determine if compounds were able to block activation of MAP kinase in whole cells, the following protocol was used: Cells were plated in multi-well plates and grown to confluence. Cells were then serum-deprived overnight. Cells were exposed to the desired concentrations of compound or vehicle (DMSO) for 30 minutes, followed by addition of a growth factor, for example, PDGF (100 ng/mL). After a 5-minute treatment with the growth factor, cells were washed with PBS, then lysed in a buffer consisting of 70 mM NaCl, 10 mM HEPES (pH 7.4), 50 mM glycerol phosphate, and 1% Triton X-100. Lysates were clarified by centrifugation at 13,000×g for 10 minutes. Five micrograms of the resulting supernatants were incubated with […] microtubule associated protein-2 (Map2) for 15 minutes at 30° C. in a final volume of 25 μL containing 50 mM Tris (pH 7.4), 10 mM MgCl2, 2 mM EGTA and 30 μM [γ-^32 P]ATP. Reactions were terminated by addition of Laemmli sample buffer. Phosphorylated Map2 was resolved on 7.5% acrylamide gels and incorporated radioactivity determined by autoradiography and subsequent excision of the bands followed by scintillation counting.
The in vitro and in vivo biological activity of several representative compounds of Formula I and II in the foregoing assays is presented in Tables 1 and 2.

Sequence of MEK (Q02750 whole entry, the tested form may be a part): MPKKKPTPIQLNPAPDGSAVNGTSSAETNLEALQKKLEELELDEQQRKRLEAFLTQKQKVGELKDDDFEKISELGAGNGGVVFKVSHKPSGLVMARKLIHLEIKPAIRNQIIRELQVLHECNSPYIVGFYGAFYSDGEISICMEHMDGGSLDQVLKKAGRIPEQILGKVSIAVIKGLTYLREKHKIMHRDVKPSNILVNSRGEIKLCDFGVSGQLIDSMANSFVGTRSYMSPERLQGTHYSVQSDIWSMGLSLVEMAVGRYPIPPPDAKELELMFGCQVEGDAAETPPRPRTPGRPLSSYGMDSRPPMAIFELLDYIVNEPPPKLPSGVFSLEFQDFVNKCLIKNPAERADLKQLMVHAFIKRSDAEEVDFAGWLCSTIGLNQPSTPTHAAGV

Row | Compound | IC50 (MEK; Table 1) | IC50 (MAP kinase) | IC50 (MEK; Table 2)
1 | Cc1cc(I)ccc1Nc1ccc([N+](=O)[O-])cc1C(=O)NCCO [Example 195, N-(2-Hydroxy-ethyl)-2-(4-iodo-2-methyl-phenylamino)-5-nitro-benzamide] | 12800 nM |  | 
2 | C#CCONC(=O)c1ccc(F)c(F)c1Nc1ccc(I)cc1C [Example 71a, 3,4-Difluoro-2-(4-iodo-2-methyl-phenylamino)-N-(prop-2-ynyloxy)-benzamide] |  | 390 nM | 
3 | Cc1cc(F)ccc1Nc1cc(F)ccc1C(=O)NO [Example 8a, 4-Fluoro-N-hydroxy-2-(4-fluoro-2-methyl-phenylamino)-benzamide] |  | 3000 nM | 
4 | Cc1cc(I)ccc1Nc1ccc(Cl)cc1C(=O)NOC1CCCCO1 (stereo not shown) [Example 6a, 5-Chloro-2-(4-iodo-2-methyl-phenylamino)-N-(terahydropyran-2-yloxy)benzamide] |  | ~30000 nM | 
5 | Cc1cc(I)ccc1Nc1cc(F)ccc1C(=O)NOCc1ccccc1 [Example 77a, 4-Fluoro-2-(4-iodo-2-methyl-phenylamino)-N-phenylmethoxy-benzamide] |  |  | 280 nM
6 | CCONC(=O)c1ccc(F)c(F)c1Nc1ccc(I)cc1C [Example 40a, N-Ethoxy-3,4-difluoro-2-(4-iodo-2-methyl-phenylamino)-benzamide] |  | 125 nM | 
7 | Cc1cc(I)ccc1Nc1cc([N+](=O)[O-])ccc1C(=O)O [Example 30, 2-(4-Iodo-2-methyl-phenylamino)-4-nitro-benzoic acid] | 105000 nM |  | 
8 | Cc1cc(Br)ccc1Nc1cc(F)ccc1C(=O)NO [Example 3a, 2-(4-bromo-2-methyl-phenylamino)-4-fluoro-N-hydroxy-benzamide] |  | 3000 nM | 72 nM
9 | Cc1cc(I)ccc1Nc1c(C(=O)NO)cc(Br)c(F)c1F [Example 2a, 5-Bromo-3,4-difluoro-N-hydroxy-2-(4-iodo-2-methyl-phenylamino)-benzamide] |  | 30 nM | 
10 | Cc1cc(I)ccc1Nc1ccc(F)cc1C(=O)NOCc1ccccc1 [Example 186, N-Benzyloxy-5-fluoro-2-(4-iodo-2-methyl-phenylamino)-benzamide] | 555 nM |  | 
11 | CC=CCONC(=O)c1cc(Br)c(F)c(F)c1Nc1ccc(I)cc1C [Example 24a, 5-Bromo-N-(but-2-enyloxy)-3,4-difluoro-2-(4-iodo-2-methyl-phenylamino)-benzamide] |  | 120 nM | 
12 | C=C(C)CONC(=O)c1ccc(F)c(F)c1Nc1ccc(I)cc1C [Example 66a, 3,4-Difluoro-2-(4-iodo-2-methyl-phenylamino)-N-(2-methyl-allyloxy)-benzamide] |  | 130 nM | 
13 | CCN(CC)C(=O)c1ccc(F)cc1Nc1ccc(I)cc1C [Example 43, N,N-Diethyl-4-fluoro-2-(4-iodo-2-methyl-phenylamino)-benzamide] | > 1000 nM |  | 
14 | CONC(=O)c1ccc(F)c(F)c1Nc1ccc(I)cc1C [Example 14a, 3,4-Difluoro-2-(4-iodo-2-methyl-phenylamino)-N-N-methoxy-benzamide] |  | > 2000 nM | 
15 | C#CCCONC(=O)c1ccc(F)c(F)c1Nc1ccc(I)cc1C [Example 29a, N-(But-3-ynyloxy)-3,4-difluoro-2-(4-iodo-2-methyl-phenylamino)-benzamide] |  | 730 nM | 
16 | Cc1cc(I)ccc1Nc1ccc(Cl)cc1C(=O)N(C)O [Example 5a, 5-Chloro-N-hydroxy-2-(4-iodo-2-methyl-phenylamino)-N-methyl-benzamide] |  | ~30000 nM | 
17 | Cc1cc(Cl)ccc1Nc1cc(F)ccc1C(=O)NO [Example 11a, 4-Fluoro-N-hydroxy-2-(4-cluoro-2-methyl-phenylamino)-benzamide] |  | 500 nM | 334 nM
18 | Cc1cc(I)ccc1Nc1cc(F)ccc1C(=O)NO [Example 1a, 4-Fluoro-N-hydroxy-2-(4-iodo-2-methyl-phenylamino)-benzamide] |  | 50 nM | 
19 | CCCONC(=O)c1ccc(F)c(F)c1Nc1ccc(I)cc1C [Example 43a, 3,4-Difluoro-2-(4-iodo-2-methyl-phenylamino)-N-propoxy-benzamide] |  | 100 nM | 
20 | Cc1cc(I)ccc1Nc1c(C(=O)NOCC#Cc2cccc(F)c2)ccc(F)c1F [Example 34a, 3,4-Difluoro-N-[3-(3-fluoro-phenyl)-prop-2-ynyloxy]-2-(4-iodo-2-methyl-phenylamino)-benzamide] |  | 1500 nM | 
21 | Cc1cc(I)ccc1Nc1c(C(=O)NOC2CCC2)ccc(F)c1F [Example 50a, N-Cyclobutyloxy-3,4-difluoro-2-(4-iodo-2-methyl-phenylamino)-benzamide] |  | 220 nM | 
22 | Cc1ccccc1Nc1cc(F)ccc1C(=O)NO [Example 9a, 4-Fluoro-N-hydroxy-2-(2-methylphenylamino)-benzamide] |  | 1000 nM | 
23 | Cc1cc(I)ccc1Nc1c(C(=O)NOC(C)C)ccc(F)c1F [Example 47a, 3,4-Difluoro-2-(4-iodo-2-methyl-phenylamino)-N-isopropoxy-benzamide] |  | 130 nM | 
24 | Cc1cc(I)ccc1Nc1cc(F)ccc1C(=O)NOCc1ccoc1 [Example 20a, 4-Fluoro-N-(furan-3-ylmethoxy)-2-(4-iodo-2-methyl-phenylamino)-benzamide] |  | 170 nM | 
25 | Cc1cc(I)ccc1Nc1c(C(=O)NOCC2CC2)cc(Br)c(F)c1F [Example 58a, 5-Bromo-N-cyclopropylmethoxy-3,4-difluoro-2-(4-iodo-2-methyl-phenylamino)] |  | 14 nM | 18 nM
26 | CONC(=O)c1cc(Cl)ccc1Nc1ccc(I)cc1C [Example 7a, 5-Chloro-2-(4-iodo-2-methyl-phenylamino)-N-methoxybenzamide] |  | < 30000 nM | 
27 | Cc1cc(I)ccc1Nc1c(C(=O)NOCC#Cc2ccccc2F)ccc(F)c1F [Example 36a, 3,4-Difluoro-N-[3-(2-fluoro-phenyl)-prop-2-ynyloxy]-2-(4-iodo-2-methyl-phenylamino)-benzamide] |  | 70 nM | 
28 | Cc1cc(I)ccc1Nc1ccc(Cl)cc1C(=O)NO [Example 4a, 5-Chloro-N-hydroxy-2-(4-iodo-2-methyl-phenylamino)-benzamide] |  | 1000 nM | 
